Where two headings read alike, the source gives them in different places.
Tests used:
PDE2 = target: T1, PDE2 (Homo sapiens, UniProt O00408); experiment: Inhibition of PDE2 (radioenzymatic phosphodiesterase assay); assay type: biochemical; conditions: for inhibition at 10 µM: 10 μM compound
T1 construct: PDE2 was isolated from human platelets, provided by Etablissement Français du Sang-Alsace; tissue Etablissement Français du Sang-Alsace; host or cells: human platelets
Protocol: (§1) 2.1.1. Isolation of Phosphodiesterases from Smooth Muscle A 3 g segment of bovine aortic media cut into pieces with scissors was homogenized with an ultra-turrax then a potter glass/glass homogenizer in 7 volumes by weight of buffer A containing a protease inhibitor cocktail (20 mM Tris-HCl, 0.25 M saccharose, 2 mM magnesium acetate, 1 mM dithiothreitol, 5 mM EGTA, 2000 U/ml aprotinin, 10 mg/l leupeptin and 10 mg/l soya trypsic inhibitor). The homogenizate was centrifuged at 105,000 g for 1 hour. The supernatant was loaded on a DEAE-Sephacel column (15×1.6 cm) pre-equilibrated with buffer B (buffer A without the saccharose, EGTA and protease inhibitors). The column was washed until there was no detectable absorption at 280 nm, then eluted with a linear gradient of NaCl (0-0.5 M) in buffer B. 3-ml fractions were collected and enzyme activity was determined under the conditions described hereinbelow to localize the different enzymes PDE1, PDE3, PDE4 and PDE5 which were aliquoted and frozen at −80° C. (Lugnier et al., Biochem. Phamacol., 1986, 35: 1746-1751). PDE2 was isolated from human platelets, provided by Etablissement Français du Sang-Alsace, according to Kameni Tcheudji J F et al., (J. Mol. Biol. 2001; 310: 181-791), and stored until use at −80° C. in small aliquots.
(§2) Cyclic nucleotide phosphodiesterase activity was determined by a radioenzymatic method using tritium-labelled cyclic GMP or AMP (1 μM) as substrate (Lugnier et al., 1986). ^3H-labelled adenosine or guanosine monophosphate formed by hydrolysis of the radiolabelled cyclic nucleotide was then converted to ^3H-labelled adenosine or guanosine in a second reaction with […] in excess. The nucleoside formed was separated from the nucleotides by anion exchange chromatography. Nucleoside radioactivity was determined by liquid scintillation counting. Enzymatic incubations were carried out under conditions allowing no more than 15% hydrolysis of the substrate; each point was performed in duplicate.
The concentration of substance which inhibits enzymatic activity by 50% (IC50) at 1 μM cyclic AMP was calculated by nonlinear regression from the experimental values of hydrolysis rate (Prism, GraphPad).

PDE4 = experiment: Selectivity: inhibition of PDE4 (radioenzymatic assay); assay type: biochemical, bovine; conditions: Table 2; for PDE4 percentage inhibition at 10 μM: 10 μM compound
Protocol: as §1, §2
(§3) The activity of the compounds was evaluated on other phosphodiesterase isoforms, particularly basal state or calmodulin-activated PDE1 from vascular smooth muscle, PDE3, PDE4 and PDE5 from vascular smooth muscle. The results obtained are presented in Tables 1 and 2 hereinbelow and are expressed as the percentage inhibition of enzymatic activity produced by […] of the test compound.

5-HT transporter = target: T2, 5-HT transporter (Homo sapiens, UniProt P31645); experiment: Serotonergic transporter binding ([3H]imipramine); conditions: [3H]imipramine 2 nM, HEK-293 recombinant, read-out: percentage inhibition at 10 μM of control specific binding to the serotonergic transporter
T2 construct: expressed in transfected cells; host or cells: HEK-293
Protocol: The serotonergic 5-HT transporter was isolated from human recombinant HEK-293 cells according to the method described by Tatsumi et al. (1997), Pharmacological profile of antidepressants and related compounds at human monoamine transporters, Eur. J. Pharmacol., 340: 249-258.
Serotonergic transporter binding was determined by a radioligand method using tritium-labelled imipramine (2 nM) as substrate (Tatsumi et al., 1999). Ligand radioactivity was determined by liquid scintillation counting. Ligand incubations were carried out for thirty minutes at 22° C. The experiment was conducted in duplicate.
The specific ligand binding to the serotonergic transporter was defined as the difference between the total binding and the non specific binding determined in presence of an excess of unlabelled ligand. The results obtained are presented in Table 3 hereinbelow and are expressed as percent of control specific binding and as a percent inhibition of control specific binding obtained in presence of 10 μM of substance.

PDE1 = experiment: Selectivity: inhibition of PDE1 (radioenzymatic assay); assay type: biochemical, bovine; conditions: Table 2; 10 μM compound
Protocol: as §1, with “PDE2 was isolated from human platelets, provided by Etablissement Français du Sang-Alsace, according to Kameni Tcheudji J F et al., (J. Mol. Biol. 2001; 310: 181-791), and stored until use at −80° C. in small aliquots.” left out
as §2, with “The nucleoside formed was separated from the nucleotides by anion exchange chromatography.” left out, “Enzymatic incubations were carried out under conditions allowing no more than 15% hydrolysis of the substrate; each point was performed in duplicate.” left out
as §3

PDE3 = target: T3, PDE3 (Bos taurus, UniProt A0A3Q1M1E8); experiment: Selectivity: inhibition of PDE3 (radioenzymatic assay); assay type: biochemical, bovine; conditions: Table 2; 10 μM compound; read-out: PDE3 percentage inhibition at 10 μM
T3 sequence (A0A3Q1M1E8 1-1126): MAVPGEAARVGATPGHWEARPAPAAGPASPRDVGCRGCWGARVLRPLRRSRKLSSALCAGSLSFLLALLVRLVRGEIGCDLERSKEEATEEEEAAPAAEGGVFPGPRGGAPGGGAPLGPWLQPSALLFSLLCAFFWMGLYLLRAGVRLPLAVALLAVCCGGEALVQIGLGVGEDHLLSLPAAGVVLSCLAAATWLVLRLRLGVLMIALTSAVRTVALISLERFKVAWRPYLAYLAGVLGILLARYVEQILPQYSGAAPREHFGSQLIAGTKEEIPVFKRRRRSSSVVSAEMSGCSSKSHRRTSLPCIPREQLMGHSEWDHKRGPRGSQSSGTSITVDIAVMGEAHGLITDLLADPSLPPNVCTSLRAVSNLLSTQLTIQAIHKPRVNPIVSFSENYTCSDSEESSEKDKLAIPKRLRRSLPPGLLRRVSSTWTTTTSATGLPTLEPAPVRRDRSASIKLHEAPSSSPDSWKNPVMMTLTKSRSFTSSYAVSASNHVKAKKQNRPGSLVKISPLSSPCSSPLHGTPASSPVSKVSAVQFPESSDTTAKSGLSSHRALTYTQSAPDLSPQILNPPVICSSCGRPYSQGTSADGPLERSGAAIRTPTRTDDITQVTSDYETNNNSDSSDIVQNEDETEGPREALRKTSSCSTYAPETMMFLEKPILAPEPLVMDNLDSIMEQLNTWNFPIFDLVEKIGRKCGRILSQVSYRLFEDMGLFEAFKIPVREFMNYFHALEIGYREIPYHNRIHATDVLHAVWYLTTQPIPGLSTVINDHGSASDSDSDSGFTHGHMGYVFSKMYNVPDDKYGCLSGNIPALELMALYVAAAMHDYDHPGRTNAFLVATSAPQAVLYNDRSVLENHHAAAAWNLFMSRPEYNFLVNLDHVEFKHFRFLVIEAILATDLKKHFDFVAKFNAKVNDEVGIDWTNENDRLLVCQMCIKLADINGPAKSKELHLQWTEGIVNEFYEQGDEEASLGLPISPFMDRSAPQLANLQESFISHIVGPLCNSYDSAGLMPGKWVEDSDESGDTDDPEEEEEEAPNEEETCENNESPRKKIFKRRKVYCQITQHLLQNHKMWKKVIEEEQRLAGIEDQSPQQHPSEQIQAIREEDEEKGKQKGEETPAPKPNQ
Protocol: as §1, with “PDE2 was isolated from human platelets, provided by Etablissement Français du Sang-Alsace, according to Kameni Tcheudji J F et al., (J. Mol. Biol. 2001; 310: 181-791), and stored until use at −80° C. in small aliquots.” left out
as §2, with “The nucleoside formed was separated from the nucleotides by anion exchange chromatography.” left out, “Enzymatic incubations were carried out under conditions allowing no more than 15% hydrolysis of the substrate; each point was performed in duplicate.” left out
as §3

PDE5 = target: T4, PDE5 (Bos taurus, UniProt Q28156); experiment: Selectivity: inhibition of PDE5 (radioenzymatic assay); assay type: biochemical, bovine; conditions: Table 2; 10 μM compound; read-out: PDE5 percentage inhibition at 10 μM
T4 construct: PDE3, PDE4 and PDE5 from vascular smooth muscle; from tissue; host or cells: bovine aortic media (vascular smooth muscle), DEAE-Sephacel fraction
Protocol: as §1, with “PDE2 was isolated from human platelets, provided by Etablissement Français du Sang-Alsace, according to Kameni Tcheudji J F et al., (J. Mol. Biol. 2001; 310: 181-791), and stored until use at −80° C. in small aliquots.” left out
as §2, with “The nucleoside formed was separated from the nucleotides by anion exchange chromatography.” left out, “Enzymatic incubations were carried out under conditions allowing no more than 15% hydrolysis of the substrate; each point was performed in duplicate.” left out
as §3

[1] = Table 1, 1 μM cyclic AMP, read-out: PDE2 percentage inhibition at 10 μM

T2 sequence (P31645 whole entry): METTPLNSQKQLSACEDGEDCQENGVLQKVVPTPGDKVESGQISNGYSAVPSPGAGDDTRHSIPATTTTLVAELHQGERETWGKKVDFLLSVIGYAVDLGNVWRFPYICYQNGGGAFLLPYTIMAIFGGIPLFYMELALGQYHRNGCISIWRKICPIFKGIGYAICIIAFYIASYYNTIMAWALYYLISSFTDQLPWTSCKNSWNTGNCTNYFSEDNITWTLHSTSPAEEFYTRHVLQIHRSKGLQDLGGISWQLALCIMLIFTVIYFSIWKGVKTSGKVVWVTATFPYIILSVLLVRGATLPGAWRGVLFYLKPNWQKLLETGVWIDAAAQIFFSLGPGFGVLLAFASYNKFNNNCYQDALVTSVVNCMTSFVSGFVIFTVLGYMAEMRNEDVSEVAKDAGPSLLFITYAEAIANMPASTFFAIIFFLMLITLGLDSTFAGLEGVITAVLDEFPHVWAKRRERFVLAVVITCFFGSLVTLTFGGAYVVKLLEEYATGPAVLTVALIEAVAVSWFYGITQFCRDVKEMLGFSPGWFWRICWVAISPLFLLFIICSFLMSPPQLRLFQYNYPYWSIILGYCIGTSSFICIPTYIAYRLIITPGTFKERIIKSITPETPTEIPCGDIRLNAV
T1 sequence (O00408 whole entry): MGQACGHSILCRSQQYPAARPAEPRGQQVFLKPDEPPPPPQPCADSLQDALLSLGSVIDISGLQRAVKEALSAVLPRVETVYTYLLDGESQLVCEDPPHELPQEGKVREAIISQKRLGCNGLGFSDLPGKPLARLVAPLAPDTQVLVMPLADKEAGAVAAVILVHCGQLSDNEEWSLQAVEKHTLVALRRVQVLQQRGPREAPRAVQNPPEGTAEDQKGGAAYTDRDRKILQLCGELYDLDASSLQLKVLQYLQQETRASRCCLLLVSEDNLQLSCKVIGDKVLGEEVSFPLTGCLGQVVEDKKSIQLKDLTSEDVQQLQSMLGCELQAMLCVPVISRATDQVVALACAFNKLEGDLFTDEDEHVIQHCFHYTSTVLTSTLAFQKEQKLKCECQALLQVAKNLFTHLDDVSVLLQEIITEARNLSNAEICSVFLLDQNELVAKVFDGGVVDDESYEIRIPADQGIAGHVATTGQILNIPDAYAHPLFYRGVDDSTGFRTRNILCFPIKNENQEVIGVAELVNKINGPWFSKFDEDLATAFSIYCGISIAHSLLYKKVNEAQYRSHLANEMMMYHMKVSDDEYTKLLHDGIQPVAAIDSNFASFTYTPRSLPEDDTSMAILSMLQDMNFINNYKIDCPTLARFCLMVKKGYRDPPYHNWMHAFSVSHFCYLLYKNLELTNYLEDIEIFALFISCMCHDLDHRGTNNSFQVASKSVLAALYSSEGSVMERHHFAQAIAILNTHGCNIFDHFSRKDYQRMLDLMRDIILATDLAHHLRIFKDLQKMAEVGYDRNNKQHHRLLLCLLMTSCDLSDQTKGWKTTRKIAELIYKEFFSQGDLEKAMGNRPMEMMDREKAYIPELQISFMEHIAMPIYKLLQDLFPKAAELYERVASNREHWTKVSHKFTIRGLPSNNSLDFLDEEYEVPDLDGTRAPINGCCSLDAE

`COc1cc2c(c(OC)c1-c1ccc(Cl)cc1)C(c1cccc(C(N)=O)c1)=NCC(=O)N2C` [Compound 18] was tested, and the inhibition at 10 µM (PDE2; [1]) was 98%, the IC50 (PDE2; Table 1, value in square brackets, 1 μM cyclic AMP, read-out: PDE2 IC50) was 300 nM and the “PDE4 percentage inhibition at 10 μM” value (PDE4) was 66%. For the same compound, the IC50 (PDE4; value in square brackets) was 6500 nM and the inhibition at 10 µM (5-HT transporter) was 0%.

`COc1cc2c(c(OC)c1-c1ccc(Cl)cc1)C(c1cccc(C#N)c1)=NCC(=O)N2C` [Compound 7, 3-[7-(4-Chloro-phenyl)-6,8-dimethoxy-1-methyl-2-oxo-2,3-dihydro-1H-benzo[e][1,4]diazepin-5-yl]-benzonitrile] was tested, and the IC50 (PDE2) was 4600 nM, the inhibition at 10 µM (PDE2; [1]) was 61% and the “PDE4 percentage inhibition at 10 μM” value (PDE4) was 41%. The inhibition at 10 µM (5-HT transporter) was 16%.

Compound `COc1cc2c(c(OC)c1-c1ccccc1)C(c1ccccc1)=NCC(=O)N2C` [Compound 9, 6,8-Dimethoxy-1-methyl-5,7-diphenyl-1,3-dihydro-benzo[e][1,4]diazepin-2-one] has an inhibition at 10 µM (PDE2; [1]) of 71% and an inhibition at 10 µM (5-HT transporter) of 1%.

For `COCCCc1cccc(C2=NCC(=O)N(C)c3cc(OC)c(-c4ccccc4)c(OC)c32)c1` [Compound 29, 6,8-Dimethoxy-5-[3-(3-methoxy-propyl)-phenyl]-1-methyl-7-phenyl-1,3-dihydro-benzo[e][1,4]diazepin-2-one], the IC50 (PDE2) was 800 nM, the inhibition at 10 µM (PDE2; [1]) was 91% and the “PDE1 percentage inhibition at 10 μM” value (PDE1) was 31%. For the same compound, the inhibition at 10 µM (PDE3) was 40%, the “PDE4 percentage inhibition at 10 μM” value (PDE4) was 49% and the inhibition at 10 µM (PDE5) was 19%.

`COc1cc2c(c(OC)c1-c1cccnc1)C(c1cccc(C#N)c1)=NCC(=O)N2C` [Compound 8, 3-(6,8-Dimethoxy-1-methyl-2-oxo-7-pyridin-3-yl-2,3-dihydro-1H-benzo[e][1,4]diazepin-5-yl)-benzonitrile] was tested, and the inhibition at 10 µM (PDE2; read-out: PDE2 percentage inhibition at 10 μM, Table 1, 1 μM cyclic AMP) was 56% and the inhibition at 10 µM (5-HT transporter) was 8%.
